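Cultured in 96-well plates, cells were exposed to test compound for 48 hours across five concentrations. The concentration for full growth arrest is given as TGI.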
Tests used:
Assay in all cases: NCI anticancer screen, dose series, 48 h
M14 melanoma = tested on: M14 melanoma
MDA-MB-231 breast = tested on: MDA-MB-231 breast
HT29 colon = tested on: HT29 colon
OVCAR-8 ovarian = tested on: OVCAR-8 ovarian
SR leukemia = tested on: SR leukemia
LOX IMVI melanoma = tested on: LOX IMVI melanoma
PC-3 prostate = tested on: PC-3 prostate
OVCAR-4 ovarian = tested on: OVCAR-4 ovarian
K-562 leukemia = tested on: K-562 leukemia
SK-OV-3 ovarian = tested on: SK-OV-3 ovarian
TK-10 renal = tested on: TK-10 renal
DU-145 prostate = tested on: DU-145 prostate
ACHN renal = tested on: ACHN renal
SF-539 CNS = tested on: SF-539 CNS
SK-MEL-5 melanoma = tested on: SK-MEL-5 melanoma
UACC-257 melanoma = tested on: UACC-257 melanoma
UACC-62 melanoma = tested on: UACC-62 melanoma
MALME-3M melanoma = tested on: MALME-3M melanoma
T-47D breast = tested on: T-47D breast
SK-MEL-2 melanoma = tested on: SK-MEL-2 melanoma
COLO 205 colon = tested on: COLO 205 colon
OVCAR-3 ovarian = tested on: OVCAR-3 ovarian
MDA-MB-435 = tested on: MDA-MB-435
SF-295 CNS = tested on: SF-295 CNS
SN12C renal = tested on: SN12C renal
HCT-15 colon = tested on: HCT-15 colon
EKVX NSCLC = tested on: EKVX NSCLC
HL-60(TB) leukemia = tested on: HL-60(TB) leukemia
U251 CNS = tested on: U251 CNS
HOP-62 NSCLC = tested on: HOP-62 NSCLC
MCF7 breast = tested on: MCF7 breast
SNB-75 CNS = tested on: SNB-75 CNS
RPMI-8226 leukemia = tested on: RPMI-8226 leukemia
A549 NSCLC = tested on: A549 NSCLC
SNB-19 CNS = tested on: SNB-19 CNS
HS 578T breast = tested on: HS 578T breast
NCI-H23 lung = tested on: NCI-H23 lung
MDA-N = tested on: MDA-N
HOP-92 NSCLC = tested on: HOP-92 NSCLC
UO-31 renal = tested on: UO-31 renal
SK-MEL-28 melanoma = tested on: SK-MEL-28 melanoma
RXF 393 renal = tested on: RXF 393 renal
OVCAR-5 ovarian = tested on: OVCAR-5 ovarian
A498 renal = tested on: A498 renal
NCI-H226 lung = tested on: NCI-H226 lung
NCI/ADR-RES ovarian = tested on: NCI/ADR-RES ovarian
786-0 renal = tested on: 786-0 renal
SF-268 CNS = tested on: SF-268 CNS
CAKI-1 renal = tested on: CAKI-1 renal
HCT-116 colon = tested on: HCT-116 colon
CCRF-CEM leukemia = tested on: CCRF-CEM leukemia
MOLT-4 leukemia = tested on: MOLT-4 leukemia
IGROV1 ovarian = tested on: IGROV1 ovarian
BT-549 breast = tested on: BT-549 breast
HCC-2998 colon = tested on: HCC-2998 colon
KM12 colon = tested on: KM12 colon
SW-620 colon = tested on: SW-620 colon
NCI-H460 lung = tested on: NCI-H460 lung

Molecule `CN(C)C=Nc1ccc2[nH]c3ccccc3c2c1` has a TGI (M14 melanoma) of 29.1 µM, a TGI (MDA-MB-231 breast) of 43.1 µM and a TGI (HT29 colon) of 43.8 µM. For the same molecule, the TGI (OVCAR-8 ovarian) was greater than 100 µM, the TGI (SR leukemia) was 41 µM and the TGI (LOX IMVI melanoma) was 34.2 µM. The TGI (PC-3 prostate) was greater than 100 µM, the TGI (OVCAR-4 ovarian) was greater than 100 µM and the TGI (K-562 leukemia) was 43.4 µM. For the same molecule, the TGI (SK-OV-3 ovarian) was greater than 100 µM, the TGI (TK-10 renal) was 86.2 µM and the TGI (DU-145 prostate) was greater than 100 µM. It also gave a TGI (ACHN renal) greater than 100 µM, a TGI (SF-539 CNS) of 50.5 µM and a TGI (SK-MEL-5 melanoma) of 30.4 µM. It also gave a TGI (UACC-257 melanoma) of 30.3 µM, a TGI (UACC-62 melanoma) of 40.6 µM and a TGI (MALME-3M melanoma) of 54.7 µM. It also gave a TGI (T-47D breast) of 97.7 µM, a TGI (SK-MEL-2 melanoma) of 35.3 µM and a TGI (COLO 205 colon) of 30.2 µM. For the same molecule, the TGI (OVCAR-3 ovarian) was greater than 100 µM, the TGI (MDA-MB-435) was 33.9 µM and the TGI (SF-295 CNS) was greater than 100 µM. For the same molecule, the TGI (SN12C renal) was greater than 100 µM, the TGI (HCT-15 colon) was 46.5 µM and the TGI (EKVX NSCLC) was greater than 100 µM. For the same molecule, the TGI (HL-60(TB) leukemia) was 41.7 µM, the TGI (U251 CNS) was 68.6 µM and the TGI (HOP-62 NSCLC) was 57.7 µM. The TGI (MCF7 breast) was greater than 100 µM, the TGI (SNB-75 CNS) was greater than 100 µM and the TGI (RPMI-8226 leukemia) was 60.4 µM. It also gave a TGI (A549 NSCLC) greater than 100 µM, a TGI (SNB-19 CNS) greater than 100 µM and a TGI (HS 578T breast) greater than 100 µM. The TGI (NCI-H23 lung) was greater than 100 µM, the TGI (MDA-N) was 33 µM and the TGI (HOP-92 NSCLC) was 39 µM. It also gave a TGI (UO-31 renal) of 88.1 µM, a TGI (SK-MEL-28 melanoma) of 40 µM and a TGI (RXF 393 renal) of 79 µM. It also gave a TGI (OVCAR-5 ovarian) of 96.5 µM, a TGI (A498 renal) of 60.1 µM and a TGI (NCI-H226 lung) of 84 µM. The TGI (NCI/ADR-RES ovarian) was greater than 100 µM, the TGI (786-0 renal) was 70 µM and the TGI (SF-268 CNS) was greater than 100 µM. The TGI (CAKI-1 renal) was greater than 100 µM, the TGI (HCT-116 colon) was greater than 100 µM and the TGI (CCRF-CEM leukemia) was greater than 100 µM. The TGI (MOLT-4 leukemia) was 83.3 µM, the TGI (IGROV1 ovarian) was greater than 100 µM and the TGI (BT-549 breast) was greater than 100 µM.

Work on `CCCc1c(Cl)nc(Cl)nc1Cl` yielded a TGI (M14 melanoma) greater than 37.9 µM, a TGI (MDA-MB-231 breast) of 7.99 µM and a TGI (HCC-2998 colon) of 15.6 µM. For the same molecule, the TGI (HT29 colon) was 4.02 µM, the TGI (OVCAR-8 ovarian) was greater than 19.9 µM and the TGI (KM12 colon) was 15.8 µM. The TGI (SR leukemia) was 2.15 µM, the TGI (LOX IMVI melanoma) was 0.461 µM and the TGI (PC-3 prostate) was 28.6 µM. For the same molecule, the TGI (OVCAR-4 ovarian) was 26.3 µM, the TGI (K-562 leukemia) was 1.53 µM and the TGI (SK-OV-3 ovarian) was greater than 100 µM. The TGI (TK-10 renal) was 18.5 µM, the TGI (DU-145 prostate) was 9.82 µM and the TGI (SW-620 colon) was 12.7 µM. For the same molecule, the TGI (ACHN renal) was 10.7 µM, the TGI (SF-539 CNS) was 5.84 µM and the TGI (SK-MEL-5 melanoma) was 2.54 µM. For the same molecule, the TGI (UACC-257 melanoma) was 11.1 µM, the TGI (UACC-62 melanoma) was greater than 100 µM and the TGI (NCI-H460 lung) was 12.7 µM. The TGI (MALME-3M melanoma) was 4.95 µM, the TGI (T-47D breast) was 11.7 µM and the TGI (SK-MEL-2 melanoma) was 4.35 µM. For the same molecule, the TGI (COLO 205 colon) was 0.706 µM, the TGI (OVCAR-3 ovarian) was 5.46 µM and the TGI (MDA-MB-435) was 2.44 µM. It also gave a TGI (SF-295 CNS) of 12.3 µM, a TGI (SN12C renal) of 5.51 µM and a TGI (HCT-15 colon) of 3.71 µM. For the same molecule, the TGI (HL-60(TB) leukemia) was 3.01 µM, the TGI (U251 CNS) was 7.95 µM and the TGI (HOP-62 NSCLC) was 7.79 µM. For the same molecule, the TGI (MCF7 breast) was 16.3 µM, the TGI (SNB-75 CNS) was 28.1 µM and the TGI (RPMI-8226 leukemia) was greater than 33.1 µM. It also gave a TGI (A549 NSCLC) of 24.6 µM, a TGI (SNB-19 CNS) of 21.1 µM and a TGI (HS 578T breast) of 27.6 µM. The TGI (NCI-H23 lung) was 4.3 µM, the TGI (MDA-N) was 0.548 µM and the TGI (HOP-92 NSCLC) was 11.9 µM. The TGI (UO-31 renal) was greater than 55.4 µM, the TGI (SK-MEL-28 melanoma) was 1.45 µM and the TGI (RXF 393 renal) was 4.93 µM. It also gave a TGI (OVCAR-5 ovarian) of 17.5 µM, a TGI (A498 renal) of 34.7 µM and a TGI (NCI-H226 lung) of 0.0913 µM. The TGI (NCI/ADR-RES ovarian) was 7.53 µM, the TGI (786-0 renal) was 11.2 µM and the TGI (SF-268 CNS) was greater than 68 µM. It also gave a TGI (HCT-116 colon) of 22.8 µM, a TGI (CCRF-CEM leukemia) of 0.0921 µM and a TGI (MOLT-4 leukemia) of 10.7 µM. For the same molecule, the TGI (IGROV1 ovarian) was greater than 37.3 µM and the TGI (BT-549 breast) was 4.37 µM.

Reference: PubChem BioAssay (NCI)
